In patent US7091211B2, “Cyclopentyl modulators of chemokine receptor activity” (Merck & Co., Inc., priority 2003, dated 2006):
Where a name gives a salt, the structure may show the parent alone.

Molecular target: T1, CCR3 (Homo sapiens, UniProt P51677)
T1 sequence (P51677 1-355): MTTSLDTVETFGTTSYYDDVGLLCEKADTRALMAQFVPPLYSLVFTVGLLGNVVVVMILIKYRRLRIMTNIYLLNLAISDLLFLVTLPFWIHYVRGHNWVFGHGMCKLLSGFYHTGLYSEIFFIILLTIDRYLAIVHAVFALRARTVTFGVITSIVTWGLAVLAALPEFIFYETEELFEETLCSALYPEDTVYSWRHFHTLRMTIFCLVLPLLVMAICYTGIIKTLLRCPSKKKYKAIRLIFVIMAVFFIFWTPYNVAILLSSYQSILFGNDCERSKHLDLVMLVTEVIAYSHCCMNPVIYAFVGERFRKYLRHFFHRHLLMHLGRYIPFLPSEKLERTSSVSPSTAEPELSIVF
Assay: Assay for determining CCR3 binding activity
Conditions: assay disclosed in U.S. Pat. No. 6,303,593 or 6,538,002
Excerpt: Cell lines for expressing the receptor of interest include those naturally expressing the receptor, such as […] or THP-1, or a cell engineered to express a recombinant receptor, such as CHO, RBL-2H3, or HEK-293. For example, a CCR3 transfected AML14.3D10 cell line has been placed on restricted deposit with American Type Culture Collection as ATCC No. CRL-12079.
The CCR3 binding activity of representative compounds of the present invention can be determined via the assay disclosed in U.S. Pat. No. 6,303,593 or U.S. Pat. No. 6,538,002.

| SMILES | IC50 [µM] |
| --- | --- |
| CCc1nn(CC)c2c1CCC21CCN(C[C@H]2C[C@H](N(C)[C@@H](C(=O)O)C(C)C)C[C@@H]2c2cccc(F)c2)CC1 [Example 1, N-Methyl-N-(1-(R)-3-(S)-((1,3-diethyl-4,5-dihydrospiro[cyclopentapyrazole-6(1H),4′-piperidin-1′-yl])methyl)-4-(S)-(3-fluorophenyl)cyclopent-1-yl)-(R)-valine trihydrochloride salt] | < 10 |
| CCc1nn(CC)c2c1CCC21CCN(C[C@H]2C[C@H](N(CC)[C@@H](C(=O)O)C(C)C)C[C@@H]2c2cccc(F)c2)CC1 [Example 18, N-Ethyl-N-(1-(R)-3-(S)-((1,3-diethyl-4,5-dihydrospiro[cyclopentapyrazole-6(1H),4′-piperidin-1′-yl])methyl)-4-(S)-(3-fluorophenyl)cyclopent-1-yl)-(R)-valine trihydrochloride salt] | < 10 |
| CCc1nn(CC)c2c1CCC21CCN(C[C@H]2C[C@H]([C@@H](C(=O)O)N(C)C(C)(C)CC)C[C@@H]2c2cccc(F)c2)CC1 [Example 46, 2-(S)-(1-(R)-3-(S)-((1,3-Diethyl-4,5-dihydrospiro[cyclopentapyrazole-6(1H),4′-piperidin-1′-yl])methyl)-4-(S)-(3-fluorophenyl)cyclopent-1-yl)-2-((1,1-dimethylprop-1-yl)methylamino)acetic acid trihydrochloride salt] | < 10 |
| CCc1nn(CC)c2c1CCC21CCN(C[C@H]2C[C@H](N(C)[C@@H](C(=O)O)C(C)C)C[C@@H]2c2ccc(F)c(F)c2)CC1 [Example 25, N-Methyl-N-(1-(R)-3-(S)-((1,3-diethyl-4,5-dihydrospiro[cyclopentapyrazole-6(1H),4′-piperidin-1′-yl])methyl)-4-(S)-(3,4-difluorophenyl)cyclopent-1-yl)-(R)-valine trihydrochloride salt] | < 10 |
| CCn1ncc2c1C1(CC2)CCN(C[C@H]2C[C@H](N(C)[C@@H](C(=O)O)C(C)C)C[C@@H]2c2cccc(F)c2)CC1 [Example 6, N-Methyl-N-(1-(R)-3-(S)-((1-ethyl-4,5-dihydrospiro[cyclopentapyrazole-6(1H),4′-piperidin-1′-yl])methyl)-4-(S)-(3-fluorophenyl)cyclopent-1-yl)-(R)-valine trihydrochloride salt] | < 10 |
| CCc1nn(CC)c2c1CCC21CCN(C[C@H]2C[C@H]([C@H](NC(C)(C)CC)C(=O)O)C[C@@H]2c2cccc(F)c2)CC1 [Example 45, 2-(S)-(1-(R)-3-(S)-((1,3-Diethyl-4,5-dihydrospiro[cyclopentapyrazole-6(1H),4′-piperidin-1′-yl])methyl)-4-(S)-(3-fluorophenyl)cyclopent-1-yl)-2-(1,1-dimethylprop-1-ylamino)acetic acid trihydrochloride salt] | < 10 |
| CCc1onc2c1CCC21CCN(C[C@H]2C[C@H](N(C)[C@@H](C(=O)O)C(C)C)C[C@@H]2c2cccc(F)c2)CC1 [Example 12, N-Methyl-N-(1-(R)-3-(S)-((3-ethyl-4,5-dihydrospiro[6H-cyclopent[c]isoxazole-6,4′-piperidin-1′-yl])methyl)-4-(S)-(3-fluorophenyl)cyclopent-1-yl)-(R)-valine trihydrochloride salt] | < 10 |
| CCn1cc2c(n1)CCC21CCN(C[C@H]2C[C@H](N(C)[C@@H](C(=O)O)C(C)C)C[C@@H]2c2cccc(F)c2)CC1 [Example 15, N-Methyl-N-(1-(R)-3-(S)-((2-ethyl-5,6 dihydrospiro[cyclopentapyrazole-4(2H),4′-piperidin-1′-yl])methyl)-4-(S)-(3-fluorophenyl)cyclopent-1-yl)-(R)-valine trihydrochloride salt] | < 10 |
| CCc1nn(CC)c2c1C1(CC2)CCN(C[C@H]2C[C@H](N(C)[C@@H](C(=O)O)C(C)C)C[C@@H]2c2cccc(F)c2)CC1 [Example 16, N-Methyl-N-(1-(R)-3-(S)-((1,3-diethyl-5,6 dihydrospiro[cyclopentapyrazole-4(1H),4′-piperidin-1′-yl])methyl)-4-(S)-(3-fluorophenyl)cyclopent-1-yl)-(R)-valine trihydrochloride salt] | < 10 |
| CCc1c2c(nn1CC)C1(CC2)CCN(C[C@H]2C[C@H](N(C)[C@@H](C(=O)O)C(C)C)C[C@@H]2c2cccc(F)c2)CC1 [Example 2, N-Methyl-N-(1-(R)-3-(S)-((2,3-diethyl-4,5-dihydrospiro[cyclopentapyrazole-6(2H),4′-piperidin-1′-yl])methyl)-4-(S)-(3-fluorophenyl)cyclopent-1-yl)-(R)-valine trihydrochloride salt] | < 10 |
| CCc1nn(CC)c2c1CCC21CCN(C[C@H]2C[C@H](N(C)[C@@H](C(=O)O)C(C)(C)C)C[C@@H]2c2cccc(F)c2)CC1 [Example 20, N-Methyl-N-(1-(R)-3-(S)-((1,3-diethyl-4,5-dihydrospiro[cyclopentapyrazole-6(1H),4′-piperidin-1′-yl])methyl)-4-(S)-(3-fluorophenyl)cyclopent-1-yl)-(R)-t-butylglycine trihydrochloride salt] | < 10 |
| CCc1nn(C)c2c1CCC21CCN(C[C@H]2C[C@H](N(C)[C@@H](C(=O)O)C(C)C)C[C@@H]2c2cccc(F)c2)CC1 [Example 3, N-Methyl-N-(1-(R)-3-(S)-((3-ethyl-1-methyl-4,5-dihydrospiro[cyclopentapyrazole-6(1H),4′-piperidin-1′-yl])methyl)4-(S)-(3-fluorophenyl)cyclopent-1-yl)-(R)-valine trihydrochloride salt] | < 10 |
